Consider 1 compound from ChEMBL document CHEMBL5696441 (Nat Chem Biol, 2011).

The target in the test is T1, Tyrosine-protein kinase Tec (Homo sapiens) (UniProt P42680).
T1 sequence (whole entry): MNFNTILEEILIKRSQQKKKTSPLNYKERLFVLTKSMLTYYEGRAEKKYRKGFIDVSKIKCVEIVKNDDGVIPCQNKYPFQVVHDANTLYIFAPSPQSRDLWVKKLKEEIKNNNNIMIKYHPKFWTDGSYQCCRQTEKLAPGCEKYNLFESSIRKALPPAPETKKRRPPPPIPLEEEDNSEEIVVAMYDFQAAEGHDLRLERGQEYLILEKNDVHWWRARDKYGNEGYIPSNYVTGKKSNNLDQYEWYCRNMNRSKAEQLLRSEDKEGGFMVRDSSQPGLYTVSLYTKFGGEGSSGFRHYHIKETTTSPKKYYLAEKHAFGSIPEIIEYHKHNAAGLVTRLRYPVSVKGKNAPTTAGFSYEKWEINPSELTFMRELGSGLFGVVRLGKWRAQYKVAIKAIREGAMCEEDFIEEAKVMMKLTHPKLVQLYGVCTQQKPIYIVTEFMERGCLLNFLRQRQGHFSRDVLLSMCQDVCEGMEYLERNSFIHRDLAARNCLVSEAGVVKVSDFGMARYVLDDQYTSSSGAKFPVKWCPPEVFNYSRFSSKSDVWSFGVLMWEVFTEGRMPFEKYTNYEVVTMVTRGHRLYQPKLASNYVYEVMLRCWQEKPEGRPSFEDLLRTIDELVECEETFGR
Nature of the test: Inhibition of human TEC assessed as residual activity at 1 uM using polyEY as substrate in presence of 33P-ATP by ProQinase assay relative to control.

Molecules are shown by their SMILES.

For the compound `O=C1c2ccc(Nc3ccc(F)cc3F)cc2CCc2ccc(OC[C@H](O)CO)cc21` [Skepinone-L], the Activity is 115%.
